The text below walks through data of US10287275B2, “16-member triamilide derivatives and uses thereof” (VICTOR PHARMA CO., LTD. ZHENJIANG, priority 2015, dated 2019).

In brackets after ≈: the same amount, converted by molar mass.

Assay type in all cases: cell-based
One test concerns M. gallisepticum BG44T. The experiment in a line: Mycoplasma susceptibility testing (MIC). As to conditions: Mycoplasmoides gallisepticum. How it is done:
(§1) The MIC's in Table I and Table II were determined by standard agar-dilution assays or broth-dilution microtiter test.

The next test concerns M. gallisepticum S6. The experiment in a line: Mycoplasma susceptibility testing (MIC). As to conditions: Mycoplasmoides gallisepticum. As for the experimental part: as §1
In another test the test system is M. hyorinis BTS-7. The test can be described thus: Mycoplasma susceptibility testing (MIC). How it is done:
as §1

Test [1] relates to Actinobacillus pleuropneumoniae serotype 1. The test can be described thus: Antibacterial MIC, agar-dilution or broth-dilution microtiter test. The conditions noted are these: Strain A: Actinobacillus pleuropneumoniae serotype 1. How it is done:
as §1

Test [2] deals with Actinobacillus pleuropneumoniae serotype 7. Described as above. As to conditions: Strain B: Actinobacillus pleuropneumoniae serotype 7. As for the experimental part: as §1
Test [3] has as its system Escherichia coli 25922 (QC strain). The test is described as above. As to conditions: Strain F: Escherichia coli 25922 (QC strain). How it is done: as §1
The next test has as its system Escherichia coli IN-F6-7. The description is as above. The conditions noted are these: INF67; Strain E: Escherichia coli IN-F6-7. As for the experimental part: as §1
The subject of test [4] is Klebsiella pneumoniae 3699. The description is as above. As to conditions: Strain K: Klebsiella pneumoniae 3699. As for the experimental part: as §1
Test [5] relates to Klebsiella pneumoniae 3753. The test is described as above. The conditions noted are these: Strain J: Klebsiella pneumoniae 3753. As for the experimental part: as §1
In a further test the test system is Pasteurella 8217. The description is as above. The conditions noted are these: Strain C: Pasteurella 8217. As for the experimental part:
as §1

The next test deals with Pasteurella 8229. The description is as above. The conditions noted are these: Strain D: Pasteurella 8229. As for the experimental part:
as §1

Test [6] concerns Staphylococcus aureus 29213 (QC strain). The test is described as above. As to conditions: Strain H: Staphylococcus aureus 29213 (QC strain). How it is done: as §1
For test [7], the system named is Staphylococcus aureus 5-1. The test is described as above. The conditions noted are these: 51; Strain G: Staphylococcus aureus 5-1. As for the experimental part: as §1
The test system of test [8] is Streptococcus pneumoniae 2349. The description is as above. The conditions noted are these: Strain L: Streptococcus pneumoniae 2349. As for the experimental part: as §1
In test [9] the test system is Streptococcus pneumoniae 49619 (QC strain). The test is described as above. As to conditions: Strain M: Streptococcus pneumoniae 49619 (QC strain). How it is done: as §1
In a further test the test system is salmonella LD4-8. The test is described as above. As to conditions: LD48; Strain I: salmonella LD4-8. How it is done: as §1

One may read the MIC as the smallest concentration in the dilution series that meets the test's criterion for growth inhibition. A low value points to a more susceptible organism. As to `CC[C@H]1OC(=O)C[C@@H](O)[C@H](C)[C@@H](O[C@@H]2O[C@H](C)[C@@H](O)[C@H](N(C)C)[C@H]2O)[C@@H](CCN2Cc3ccccc3C2)C[C@@H](C)C(=O)/C=C/C(C)=C/[C@@H]1CN1CCCCC1` [Compound 12b, (4R,5S,6S,7R,9R,11E,13E,15R,16R)-6-(((2R,3R,4S,5S,6R)-4-(dimethylamino)-3,5-dihydroxy-6-methyltetrahydro-2H-pyran-2-yl)oxy)-16-ethyl-4-hydroxy-7-(2-(isoindolin-2-yl)ethyl)-5,9,13-trimethyl-15-(piperidin-1-ylmethyl)oxacyclohexadeca-11,13-diene-2,10-dione], the values for the MIC in the test with M. gallisepticum BG44T, against M. gallisepticum S6 and in the test on M. hyorinis BTS-7 were below 0.12 µg/mL, below 0.12 µg/mL and 3.91 µg/mL (≈ 5.09 µM), respectively.

As to `CC[C@H]1OC(=O)C[C@@H](O)[C@H](C)[C@@H](O[C@@H]2O[C@H](C)[C@@H](O)[C@H](N(C)C)[C@H]2O)[C@@H](CCN2CC(C)CC(C)C2)C[C@@H](C)C(=O)/C=C/C(C)=C/[C@@H]1CN1Cc2ccccc2C1` (stereo partly drawn) [Compound 8c, (4R,5S,6S,7R,9R,11E,13E,15R,16R)-6-(((2R,3R,4S,5S,6R)-4-(dimethylamino)-3,5-dihydroxy-6-methyltetrahydro-2H-pyran-2-yl)oxy)-7-(2-(3,5-dimethylpiperidin-1-yl)ethyl)-16-ethyl-4-hydroxy-15-(isoindolin-2-ylmethyl)-5,9,13-trimethyloxacyclohexadeca-11,13-diene-2,10-dione], the MIC in the test with M. gallisepticum BG44T was 7.82 µg/mL (≈ 9.82 µM); with M. gallisepticum S6, 15.6 µg/mL (≈ 19.6 µM); against M. hyorinis BTS-7 it was 125 µg/mL (≈ 157 µM).

Turning to `CC[C@H]1OC(=O)C[C@@H](O)[C@H](C)[C@@H](O[C@@H]2O[C@H](C)[C@@H](O)[C@H](N(C)C)[C@H]2O)[C@@H](CCN2Cc3ccccc3C2)C[C@@H](C)C(=O)/C=C/C(C)=C/[C@@H]1CN(C)Cc1ccccc1` [Compound 12a, (4R,5S,6S,7R,9R,11E,13E,15R,16R)-15-((benzyl(methyl)amino)methyl)-6-(((2R,3R,4S,5S,6R)-4-(dimethylamino)-3,5-dihydroxy-6-methyltetrahydro-2H-pyran-2-yl)oxy)-16-ethyl-4-hydroxy-7-(2-(isoindolin-2-yl)ethyl)-5,9,13-trimethyloxacyclohexadeca-11,13-diene-2,10-dione], the MIC was below 0.12 µg/mL in the test with M. gallisepticum BG44T, below 0.12 µg/mL against M. gallisepticum S6 and 15.6 µg/mL (≈ 19.4 µM) against M. hyorinis BTS-7.

Turning to `CC[C@H]1OC(=O)C[C@@H](O)[C@H](C)[C@@H](O[C@@H]2O[C@H](C)[C@@H](O)[C@H](N(C)C)[C@H]2O)[C@@H](CCN2CCCCC2)C[C@@H](C)C(=O)/C=C/C(C)=C/[C@@H]1CNC1CCCCC1` [Compound 4h, (4R,5S,6S,7R,9R,11E,13E,15R,16R)-15-((cyclohexylamino)methyl)-6-(((2R,3R,4S,5S,6R)-4-(dimethylamino)-3,5-dihydroxy-6-methyltetrahydro-2H-pyran-2-yl)oxy)-16-ethyl-4-hydroxy-5,9,13-trimethyl-7-(2-(piperidin-1-yl)ethyl)oxacyclohexadeca-11,13-diene-2,10-dione], the MIC in test [1] was 64 µg/mL (≈ 85.6 µM); in test [2] it was 64 µg/mL (≈ 85.6 µM); in test [3], 16 µg/mL (≈ 21.4 µM); against Escherichia coli IN-F6-7, 16 µg/mL (≈ 21.4 µM); in test [4] it was above 256 µg/mL; in test [5], 128 µg/mL (≈ 171 µM). Also, the MIC in the test with Pasteurella 8217 stood at 16 µg/mL (≈ 21.4 µM); in the test with Pasteurella 8229, 2 µg/mL (≈ 2.67 µM); in test [6], 64 µg/mL (≈ 85.6 µM); in test [7], 256 µg/mL (≈ 342 µM); in test [8], 2 µg/mL (≈ 2.67 µM); in test [9] it was 32 µg/mL (≈ 42.8 µM). In addition, the lowest concentration to inhibit growth in the test on salmonella LD4-8 (MIC) was 32 µg/mL (≈ 42.8 µM).

On to `CC[C@H]1OC(=O)C[C@@H](O)[C@H](C)[C@@H](O[C@@H]2O[C@H](C)[C@@H](O)[C@H](N(C)C)[C@H]2O)[C@@H](CCN2CCCCC2)C[C@@H](C)C(=O)/C=C/C(C)=C/[C@@H]1CN(CC)Cc1ccccc1` [Compound 4i, (4R,5S,6S,7R,9R,11E,13E,15R,16R)-15-((benzyl(ethyl)amino)methyl)-6-(((2R,3R,4S,5S,6R)-4-(dimethylamino)-3,5-dihydroxy-6-methyltetrahydro-2H-pyran-2-yl)oxy)-16-ethyl-4-hydroxy-5,9,13-trimethyl-7-(2-(piperidin-1-yl)ethyl)oxacyclohexadeca-11,13-diene-2,10-dione], for which the MIC against M. gallisepticum BG44T was below 0.12 µg/mL; in the test with M. gallisepticum S6, below 0.12 µg/mL; with M. hyorinis BTS-7, 15.6 µg/mL (≈ 19.9 µM).

For `CC[C@H]1OC(=O)C[C@@H](O)[C@H](C)[C@@H](O[C@@H]2O[C@H](C)[C@@H](O)[C@H](N(C)C)[C@H]2O)[C@@H](CCN2CC(C)CC(C)C2)C[C@@H](C)C(=O)/C=C/C(C)=C/[C@@H]1CN(Cc1ccccc1)C(C)C` (stereo partly drawn) [Compound 8a, (4R,5S,6S,7R,9R,11E,13E,15R,16R)-15-((benzyl(isopropyl)amino)methyl)-6-(((2R,3R,4S,5S,6R)-4-(dimethylamino)-3,5-dihydroxy-6-methyltetrahydro-2H-pyran-2-yl)oxy)-7-(2-(3,5-dimethylpiperidin-1-yl)ethyl)-16-ethyl-4-hydroxy-5,9,13-trimethyloxacyclohexadeca-11,13-diene-2,10-dione], the MIC is below 0.12 µg/mL in the test on M. gallisepticum BG44T, below 0.12 µg/mL against M. gallisepticum S6 and 3.91 µg/mL (≈ 4.73 µM) against M. hyorinis BTS-7.

With `CC[C@H]1OC(=O)C[C@@H](O)[C@H](C)[C@@H](O[C@@H]2O[C@H](C)[C@@H](O)[C@H](N(C)C)[C@H]2O)[C@@H](CCN2CC(C)CC(C)C2)C[C@@H](C)C(=O)/C=C/C(C)=C/[C@@H]1CN(C)Cc1cccnc1` (stereo partly drawn) [Compound 8b, (4R,5S,6S,7R,9R,11E,13E,15R,16R)-6-(((2R,3R,4S,5S,6R)-4-(dimethylamino)-3,5-dihydroxy-6-methyltetrahydro-2H-pyran-2-yl)oxy)-7-(2-(3,5-dimethylpiperidin-1-yl)ethyl)-16-ethyl-4-hydroxy-5,9,13-trimethyl-15-((methyl(pyridin-3-ylmethyl)amino)methyl)oxacyclohexadeca-11,13-diene-2,10-dione], the MIC against M. gallisepticum BG44T was determined as 0.98 µg/mL (≈ 1.23 µM); in the test on M. gallisepticum S6, 3.91 µg/mL (≈ 4.89 µM); in the test with M. hyorinis BTS-7, 125 µg/mL (≈ 156 µM).

Turning to `CC[C@H]1OC(=O)C[C@@H](O)[C@H](C)[C@@H](O[C@@H]2O[C@H](C)[C@@H](O)[C@H](N(C)C)[C@H]2O)[C@@H](CCN2Cc3ccccc3C2)C[C@@H](C)C(=O)/C=C/C(C)=C/[C@@H]1CN1CC(C)CC(C)C1` (stereo partly drawn) [Compound 12d, (4R,5S,6S,7R,9R,11E,13E,15R,16R)-6-(((2R,3R,4S,5S,6R)-4-(dimethylamino)-3,5-dihydroxy-6-methyltetrahydro-2H-pyran-2-yl)oxy)-15-((3,5-dimethylpiperidin-1-yl)methyl)-16-ethyl-4-hydroxy-7-(2-(isoindolin-2-yl)ethyl)-5,9,13-trimethyloxacyclohexadeca-11,13-diene-2,10-dione], the figures for the MIC against M. gallisepticum BG44T, against M. gallisepticum S6 and in the test on M. hyorinis BTS-7 were below 0.12 µg/mL, below 0.12 µg/mL and 3.91 µg/mL (≈ 4.91 µM), respectively.

With `CC[C@H]1OC(=O)C[C@@H](O)[C@H](C)[C@@H](O[C@@H]2O[C@H](C)[C@@H](O)[C@H](N(C)C)[C@H]2O)[C@@H](CCN2Cc3ccccc3C2)C[C@@H](C)C(=O)/C=C/C(C)=C/[C@@H]1CN(CC)CC` [Compound 12c, (4R,5S,6S,7R,9R,11E,13E,15R,16R)-15-((diethylamino)methyl)-6-(((2R,3R,4S,5S,6R)-4-(dimethylamino)-3,5-dihydroxy-6-methyltetrahydro-2H-pyran-2-yl)oxy)-16-ethyl-4-hydroxy-7-(2-(isoindolin-2-yl)ethyl)-5,9,13-trimethyloxacyclohexadeca-11,13-diene-2,10-dione], the MIC in the test with M. gallisepticum BG44T is below 0.12 µg/mL; in the test with M. gallisepticum S6, below 0.12 µg/mL; against M. hyorinis BTS-7, 7.82 µg/mL (≈ 10.3 µM).

Consider `CC[C@H]1OC(=O)C[C@@H](O)[C@H](C)[C@@H](O[C@@H]2O[C@H](C)[C@@H](O)[C@H](N(C)C)[C@H]2O)[C@@H](CCN2CCCCC2)C[C@@H](C)C(=O)/C=C/C(C)=C/[C@@H]1CN(Cc1ccccc1)C(C)C` [Compound 4j, (4R,5S,6S,7R,9R,11E,13E,15R,16R)-15-((benzyl(isopropyl)amino)methyl)-6-(((2R,3R,4S,5S,6R)-4-(dimethylamino)-3,5-dihydroxy-6-methyltetrahydro-2H-pyran-2-yl)oxy)-16-ethyl-4-hydroxy-5,9,13-trimethyl-7-(2-(piperidin-1-yl)ethyl)oxacyclohexadeca-11,13-diene-2,10-dione], for which the figures for the MIC in the test with M. gallisepticum BG44T, in the test on M. gallisepticum S6 and in the test with M. hyorinis BTS-7 were below 0.12 µg/mL, below 0.12 µg/mL and 0.49 µg/mL (≈ 0.614 µM), respectively.
